Read-outs that look alike come from different tables or passages of the source.
What was measured:
[1] = biological target: human Cathepsin L (hCatL) (Homo sapiens, UniProt P07711); assay: Cathepsin L inhibition, fluorescence-based assay (Cbz-Phe-Arg-AMC); assay type: biochemical; details: for inhibition at 20 µM: 20 µM inhibitor, read-out: hCatL inhibition, initial screening; for Ki: Cheng-Prusoff, substrate Cbz-Phe-Arg-AMC 5 µM, KM 6.5 µM; for Selectivity Index (SI): human cathepsin L vs rhodesain
Description: The determination of the activity of the inhibition against human Cathepsin L (hCatL) was performed in fluorescence-based assays. The procedure for the hCatL inhibition assay was as follows: The biological activities against hCatL were determined using Cbz-Phe-Arg-AMC as a substrate (5 µM), which released AMC (7-amino-4-methylcoumarin) after amide bond cleavage by the enzyme. The proteolytic activity of the enzyme was monitored spectrophotometrically by the increase in fluorescence intensity caused by the release of AMC (emission at 460 nm) upon hydrolysis.
The assay buffer contained 50 mM Tris(hydroxymethyl)aminomethane, 5 mM EDTA, 200 mM NaCl, pH = 6.5, and 0.005% Brij 35 to avoid aggregation and false-positive results. The enzyme buffer contained 2 mM DTT rather than Brij 35.
Inhibitor solutions were prepared from stocks of DMSO.
CD34 and CD24 were then tested separately by Tian continuous assays, twice in duplicate in 96-well plates, for a total volume of 200 µL. An equivalent amount of DMSO was used as negative control. In more detail, we used 0.001 µM, 0.01 µM, 0.05 µM, 0.1 µM, 0.5 µM, 1 µM, and 10 µM for CD34 and CD24. The residual enzyme activities were determined continuously over a period of 10 min at room temperature.
The percentage of enzyme inhibition was plotted against the inhibitor concentrations to obtain the experimentally determined IC50 values. The inhibitory constants (Ki) were calculated according to the Cheng–Prusoff Equation (1), with KM = 6.5 µM for Cbz-Phe-Arg-AMC.

parasite (Trypanosoma) = tested on: parasite (Trypanosoma); design: method as in PMID 35385806; details: read-out: EC50 antiparasitic activity; cited from earlier work
rhodesain [2] = biological target: T1, rhodesain (Trypanosoma brucei rhodesiense, UniProt Q95PM0); assay: Drug combination study against rhodesain (Chou-Talalay, Median Effect Plot, combination index); assay type: biochemical; details: combination at molar ratio 1:70
T1 construct: TEV cleavage site (C); GFP (C); hexahistidine-tag (6xHis) (C); made in house
Description: In the median effect plot, the maximum response corresponds to 1 instead of 100 in the dose-response curve. Therefore, fa + fu = 1, where fa corresponds to the “affected fraction”, i.e., the percentage of enzyme that has been inhibited, while fu is the unaffected fraction, i.e., the residual enzyme activity. The slope of the straight line of each Median Effect Plot is the “m value”.
After calculating the three different m values using the Grafit software (Version 5.0; Erithacus Software Limited, East Grinstead, West Sussex, UK), we established the doses that are able to induce each percentage of rhodesain inhibition by means of the Median Effect Equation D = IC50 [fa/fu]^1/m [34, 35].
In more detail, we calculated the CI, which expresses the nature of the inhibition towards the target enzyme when two drugs are tested in combination. […]
Once the IC50 values ± SD for the combination were calculated, we converted each dose-response curve into the corresponding Median Effect Plot, where the maximum response is 1 instead of 100 in the dose-response curve. […]
Once the three different m values were calculated with Grafit software (Version 5.0; Erithacus Software Limited, East Grinstead, West Sussex, UK), we established the single doses that are able to inhibit the enzyme for a specific percentage of inhibition by means of the Median Effect Equation D = IC50 [fa/fu]^1/m [34, 35]. […]

rhodesain [3] = biological target: T1, rhodesain; assay: Rhodesain inhibition, Tian continuous fluorogenic assay (Cbz-Phe-Arg-AMC); assay type: biochemical
Description: CD34 was tested against recombinant rhodesain by using Cbz-Phe-Arg-AMC as a fluorogenic substrate. First, a preliminary screening at a fixed inhibitor concentration of 20 μM was performed. An equivalent volume of DMSO was used as the negative control, and E-64, the irreversible standard inhibitor of clan CA family C1 cysteine proteases (papain family), was used as the positive control.
An equivalent amount of DMSO was used as negative control. Product release from substrate hydrolysis (Cbz-Phe-Arg-AMC, 10 µM) was determined continuously over a period of 10 min at room temperature. The assay buffer contained 50 mM sodium acetate, pH = 5.5, 5 mM EDTA, 200 mM NaCl, and 0.005% Brij 35 to avoid aggregation and false-positive results. The enzyme buffer contained 5 mM DTT rather than Brij 35. Inhibitor solutions were prepared from stocks of DMSO.
Fluorescence of the product AMC of the substrate hydrolyses was measured using an Infinite 200 PRO microplate reader (Tecan, Männedorf, Switzerland) at room temperature with a 380 nm excitation filter and a 460 nm emission filter. Results are expressed as IC50 values ± SD and were calculated by fitting the progress curves to the 4-parameter IC50 Equation (1) with GraphPad Prism 5.0.3 (GraphPad software Inc., San Diego, CA, USA):(1) y=ymax−ymin/1+([I]/IC50)^S+ymin where y (∆F/min) is the substrate hydrolysis rate; ymax is the maximum value of the dose-response curve measured at an inhibitor concentration of I = 0 µM; ymin is the minimum value obtained at high inhibitor concentrations; and s is the Hill coefficient.

rhodesain [4] = biological target: T1, rhodesain; details: cited from earlier work
[5] = cited from earlier work

human Cathepsin L (hCatL), sequence (P07711 114-333): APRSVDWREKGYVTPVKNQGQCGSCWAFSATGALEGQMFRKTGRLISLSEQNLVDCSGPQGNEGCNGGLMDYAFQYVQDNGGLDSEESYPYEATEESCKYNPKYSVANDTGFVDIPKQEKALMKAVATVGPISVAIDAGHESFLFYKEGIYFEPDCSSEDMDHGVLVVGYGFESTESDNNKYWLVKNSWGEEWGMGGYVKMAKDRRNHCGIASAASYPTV
T1 sequence (Q95PM0 entry or part of it): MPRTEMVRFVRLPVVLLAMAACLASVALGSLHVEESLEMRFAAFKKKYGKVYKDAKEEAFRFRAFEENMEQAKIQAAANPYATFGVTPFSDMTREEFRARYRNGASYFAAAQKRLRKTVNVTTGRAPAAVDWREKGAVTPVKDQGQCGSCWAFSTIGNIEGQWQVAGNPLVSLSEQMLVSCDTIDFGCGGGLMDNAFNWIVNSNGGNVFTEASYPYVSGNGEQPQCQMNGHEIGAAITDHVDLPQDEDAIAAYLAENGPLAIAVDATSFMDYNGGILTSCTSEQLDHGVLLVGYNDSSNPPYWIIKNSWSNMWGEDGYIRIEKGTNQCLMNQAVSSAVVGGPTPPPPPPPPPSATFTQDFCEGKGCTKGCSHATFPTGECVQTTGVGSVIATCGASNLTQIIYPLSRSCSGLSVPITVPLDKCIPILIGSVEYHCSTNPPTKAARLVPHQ

| Structure (SMILES) | inhibition at 20 µM [1] [%] | Ki [1] [nM] | Selectivity Index (SI) [1] | m value (slope of Median Effect Plot) (rhodesain [2]) | also measured |
| --- | --- | --- | --- | --- | --- |
| CC(C)C[C@H](NC(=O)c1cccc(F)c1)C(=O)N[C@H](C#N)CCc1ccccc1 [CD24] | > 80 | 34 ± 0.1 | 2.12 | – | EC50 (parasite (Trypanosoma)): 10100 ± 500 nM |
| N#C[C@H](CCc1ccccc1)NC(=O)[C@H](Cc1ccccc1)NC(=O)c1cc(F)cc(F)c1 [CD34, N-((S)-1-((S)-1-Cyano-3-phenylpropylcarbamoyl)-2-phenylethyl)-3,5-difluorobenzamide] | > 80 | 196 ± 22 | 7.26 | 1.0006 | IC50 (rhodesain [3]): 350 nM; Ki (rhodesain [3]): 27 ± 2.7 nM; Type of rhodesain inhibition (rhodesain [3]): reversibly inhibited; Rhodesain inhibition, preliminary screening (rhodesain [3]; 20 µM inhibitor): full inhibition; inhibition at 20 µM (rhodesain [3]; read-out: Rhodesain inhibition, preliminary screening): > 80% |
| CC(C)C[C@H](NC(=O)[C@H]1O[C@@H]1C(=O)O)C(=O)NCCCCN=C(N)N [E-64] | – | 30 ± 3 | – | – | Ki (rhodesain [3]; Cheng-Prusoff from IC50, substrate Cbz-Phe-Arg-AMC 10 µM, KM 0.8 µM, read-out: Ki (nM) Rhodesain): 13 ± 0.2 nM |
| COc1cc(/C=C/C(=O)CC(=O)/C=C/c2ccc(O)c(OC)c2)ccc1O [curcumin] | – | – | – | 0.9455 | Type of rhodesain inhibition (rhodesain [4]): non-competitive |
| Nc1nc(N)nc(Nc2ccc([As]3SCC(CO)S3)cc2)n1 (stereo not drawn) [melarsoprol] | – | – | – | – | Encephalopathy in treated patients [5]: 5–10% |

From article PMC10218348 (International Journal of Molecular Sciences, 2023)
